Results published in ChEMBL document CHEMBL3124886, “Potent Hepatitis C Virus NS5A Inhibitors Containing a Benzidine Core” (ACS Med Chem Lett, 2014).

Columns and labels:
Hepatitis C virus [1] = experiment: Antiviral activity against Hepatitis C virus type 2a expressing JFH1 assessed as inhibition of infection in human Huh7.5.1 cells after 3 days by luciferase reporter gene assay; type: functional, organism-based, Hepacivirus hominis; details: genotype 2a, Huh-7, 72 h
CYP3A4 = CYP3A4 (Homo sapiens, UniProt P08684); experiment: Inhibition of CYP3A4 (unknown origin) at 10 uM relative to control; type: ADME
Sequence of CYP3A4 (P08684 whole entry): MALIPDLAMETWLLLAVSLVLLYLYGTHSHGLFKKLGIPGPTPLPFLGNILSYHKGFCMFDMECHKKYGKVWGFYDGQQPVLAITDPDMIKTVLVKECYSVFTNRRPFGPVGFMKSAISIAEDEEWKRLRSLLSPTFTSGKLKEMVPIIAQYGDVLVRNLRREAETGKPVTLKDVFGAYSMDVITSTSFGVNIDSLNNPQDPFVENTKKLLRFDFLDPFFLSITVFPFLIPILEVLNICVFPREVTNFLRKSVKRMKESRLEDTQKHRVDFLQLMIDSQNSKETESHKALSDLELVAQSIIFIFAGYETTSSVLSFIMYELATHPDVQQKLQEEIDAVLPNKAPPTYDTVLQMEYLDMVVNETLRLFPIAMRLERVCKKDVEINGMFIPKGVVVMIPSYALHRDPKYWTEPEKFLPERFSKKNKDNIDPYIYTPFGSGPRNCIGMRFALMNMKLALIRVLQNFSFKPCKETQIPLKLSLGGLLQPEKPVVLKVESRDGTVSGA

CYP2D6 = CYP2D6 (Homo sapiens, UniProt P10635); experiment: Inhibition of CYP2D6 (unknown origin) at 10 uM relative to control; type: ADME
Sequence of CYP2D6 (P10635 whole entry): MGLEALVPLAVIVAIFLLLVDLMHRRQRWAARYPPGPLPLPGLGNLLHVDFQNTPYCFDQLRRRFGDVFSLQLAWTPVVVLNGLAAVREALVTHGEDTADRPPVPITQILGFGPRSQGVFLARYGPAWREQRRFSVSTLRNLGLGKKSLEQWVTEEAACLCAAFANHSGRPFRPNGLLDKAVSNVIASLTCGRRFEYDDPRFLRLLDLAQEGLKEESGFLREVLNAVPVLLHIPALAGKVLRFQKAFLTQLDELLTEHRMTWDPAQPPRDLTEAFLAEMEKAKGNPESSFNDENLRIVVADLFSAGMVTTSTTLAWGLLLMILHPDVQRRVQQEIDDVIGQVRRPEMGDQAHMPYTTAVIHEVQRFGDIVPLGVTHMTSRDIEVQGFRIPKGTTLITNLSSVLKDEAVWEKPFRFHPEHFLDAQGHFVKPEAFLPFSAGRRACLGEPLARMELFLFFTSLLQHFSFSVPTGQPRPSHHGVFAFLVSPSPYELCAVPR

CYP2C9 = CYP2C9 (Homo sapiens, UniProt P11712); experiment: Inhibition of CYP2C9 (unknown origin) at 10 uM relative to control; type: ADME
Sequence of CYP2C9 (P11712 whole entry): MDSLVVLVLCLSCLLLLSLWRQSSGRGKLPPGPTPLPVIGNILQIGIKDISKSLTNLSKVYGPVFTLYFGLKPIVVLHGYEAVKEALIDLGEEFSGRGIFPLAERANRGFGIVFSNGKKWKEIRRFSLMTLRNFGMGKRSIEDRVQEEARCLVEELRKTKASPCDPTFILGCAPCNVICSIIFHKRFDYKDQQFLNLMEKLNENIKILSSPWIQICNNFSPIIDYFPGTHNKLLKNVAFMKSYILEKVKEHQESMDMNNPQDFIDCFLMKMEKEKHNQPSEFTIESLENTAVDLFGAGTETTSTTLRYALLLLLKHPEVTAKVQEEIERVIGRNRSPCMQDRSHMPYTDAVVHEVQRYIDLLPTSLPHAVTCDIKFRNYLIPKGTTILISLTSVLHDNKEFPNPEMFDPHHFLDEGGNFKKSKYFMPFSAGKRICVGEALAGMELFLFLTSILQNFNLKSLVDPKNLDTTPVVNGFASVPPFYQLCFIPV

CYP1A2 = target: T1, CYP1A2 (Homo sapiens, UniProt P05177); experiment: Inhibition of CYP1A2 (unknown origin) at 10 uM relative to control; type: ADME
T1 sequence (P05177 whole entry): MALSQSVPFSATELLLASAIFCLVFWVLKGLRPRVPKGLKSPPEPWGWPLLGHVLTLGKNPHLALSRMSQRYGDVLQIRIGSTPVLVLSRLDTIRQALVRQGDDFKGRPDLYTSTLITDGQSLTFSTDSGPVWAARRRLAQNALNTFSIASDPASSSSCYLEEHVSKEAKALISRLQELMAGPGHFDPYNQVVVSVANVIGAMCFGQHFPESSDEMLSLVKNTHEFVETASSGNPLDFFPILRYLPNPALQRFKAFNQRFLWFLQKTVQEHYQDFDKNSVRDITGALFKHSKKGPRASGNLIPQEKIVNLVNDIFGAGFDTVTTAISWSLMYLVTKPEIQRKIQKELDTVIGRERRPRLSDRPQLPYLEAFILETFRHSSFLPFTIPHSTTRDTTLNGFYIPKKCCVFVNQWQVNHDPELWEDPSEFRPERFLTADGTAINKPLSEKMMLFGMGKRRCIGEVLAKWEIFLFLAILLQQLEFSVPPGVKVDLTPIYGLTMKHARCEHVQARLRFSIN

[2] = Metabolic stability in rat plasma assessed as compound remaining at 2 uM after 4 hrs; type: ADME, cell-free; details: read-out: Stability
[3] = Metabolic stability in rat plasma assessed as compound remaining at 2 uM after 1 hr; type: ADME, cell-free; details: read-out: Stability
[4] = Metabolic stability in rat plasma assessed as compound remaining at 2 uM after 0.5 hrs; type: ADME, cell-free; details: read-out: Stability
[5] = target: Voltage-gated inwardly rectifying potassium channel KCNH2 (Homo sapiens, UniProt Q12809); experiment: Binding affinity to human ERG by fluorescence polarization assay
Sequence of Voltage-gated inwardly rectifying potassium channel KCNH2 (Q12809 whole entry): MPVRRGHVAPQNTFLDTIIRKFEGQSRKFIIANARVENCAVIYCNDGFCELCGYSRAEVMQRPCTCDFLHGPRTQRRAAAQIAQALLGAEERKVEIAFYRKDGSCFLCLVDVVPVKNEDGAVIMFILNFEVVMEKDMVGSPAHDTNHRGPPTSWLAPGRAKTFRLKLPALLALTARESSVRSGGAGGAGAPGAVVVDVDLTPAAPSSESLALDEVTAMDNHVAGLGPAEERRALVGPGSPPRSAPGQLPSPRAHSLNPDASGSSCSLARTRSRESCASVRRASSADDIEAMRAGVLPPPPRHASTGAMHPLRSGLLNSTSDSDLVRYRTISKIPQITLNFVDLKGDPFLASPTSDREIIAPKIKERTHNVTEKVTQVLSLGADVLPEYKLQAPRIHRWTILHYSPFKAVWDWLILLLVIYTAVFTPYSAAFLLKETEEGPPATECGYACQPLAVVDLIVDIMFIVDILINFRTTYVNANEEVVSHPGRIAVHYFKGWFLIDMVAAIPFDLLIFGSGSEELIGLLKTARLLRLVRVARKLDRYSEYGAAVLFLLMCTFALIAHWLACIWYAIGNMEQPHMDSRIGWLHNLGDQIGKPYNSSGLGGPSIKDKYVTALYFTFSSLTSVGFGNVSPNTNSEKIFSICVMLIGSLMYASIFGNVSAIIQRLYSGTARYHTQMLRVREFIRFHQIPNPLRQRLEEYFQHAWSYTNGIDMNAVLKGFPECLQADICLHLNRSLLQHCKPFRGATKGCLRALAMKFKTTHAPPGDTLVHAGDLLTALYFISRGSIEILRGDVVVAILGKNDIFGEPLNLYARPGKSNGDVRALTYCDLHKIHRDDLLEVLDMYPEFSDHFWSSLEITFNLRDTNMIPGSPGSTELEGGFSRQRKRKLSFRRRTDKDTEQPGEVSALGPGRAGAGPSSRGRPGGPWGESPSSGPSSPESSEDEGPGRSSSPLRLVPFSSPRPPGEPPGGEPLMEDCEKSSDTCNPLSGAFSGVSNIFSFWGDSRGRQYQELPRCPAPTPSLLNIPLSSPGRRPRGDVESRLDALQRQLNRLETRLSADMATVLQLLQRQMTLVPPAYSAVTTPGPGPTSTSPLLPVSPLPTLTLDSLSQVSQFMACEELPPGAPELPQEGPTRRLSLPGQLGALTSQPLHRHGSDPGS

[6] = Selectivity index, ratio of cytotoxicity for human Huh7.5.1 cells to EC50 for Hepatitis C virus genotype 1b; type: toxicity, cell-based, Huh-7; details: read-out: Selectivity Index
Hepatitis C virus [7] = experiment: Antiviral activity against Hepatitis C virus genotype 1b expressed in human Huh7.5.1 cells coexpressing NKR2AN after 3 days by luciferase reporter gene assay; type: functional, organism-based, Hepacivirus hominis; details: Huh-7, 72 h
[8] = Selectivity index, ratio of cytotoxicity for human Huh7.5.1 cells to EC50 for Hepatitis C virus type 2a; type: toxicity, cell-based, Huh-7; details: read-out: Selectivity Index
[9] = Cytotoxicity against human Huh7.5.1 cells; type: cell-based; details: huh-7

COC(=O)N[C@@H](C(=O)N1CCC[C@H]1C(=O)Nc1ccc(-c2ccc(NC(=O)[C@@H]3CCCN3C(=O)[C@H](NC(=O)OC)C(C)C)cc2)cc1)C(C)C
EC50 (Hepatitis C virus [1]): 15 nM

COC(=O)N[C@H](C(=O)N1CCC[C@H]1C(=O)Nc1ccc(-c2ccc(NC(=O)[C@@H]3CCCN3C(=O)[C@@H](NC(=O)OC)C(C)C)cc2)cc1)C(C)C
EC50 (Hepatitis C virus [1]): 120 nM

COC(=O)N[C@@H](C(=O)N1CCC[C@H]1C(=O)Nc1ccc(-c2ccc(NC(=O)[C@@H]3CCCN3C(=O)[C@H](NC(=O)OC)c3ccccc3)cc2)cc1)c1ccccc1
inhibition at 10 µM (CYP3A4): 23.9% | inhibition at 10 µM (CYP2D6): 0% | inhibition at 10 µM (CYP2C9): 0% | inhibition at 10 µM (CYP1A2): 18.1% | remaining at 4 h, 2 µM [2]: > 99% | remaining at 1 h, 2 µM [3]: > 99% | remaining at 0.5 h, 2 µM [4]: > 99% | EC50 [5]: 9800 nM | selectivity ratio [6]: > 893000 | EC50 (Hepatitis C virus [7]): 0.028 nM | selectivity ratio [8]: > 96000 | Activity [9]: > 25 µM | EC50 (Hepatitis C virus [1]): 0.26 nM

CN(C)[C@@H](C(=O)N1CCC[C@H]1C(=O)Nc1ccc(-c2ccc(NC(=O)[C@@H]3CCCN3C(=O)[C@@H](c3ccccc3)N(C)C)cc2)cc1)c1ccccc1
selectivity ratio [6]: > 58000 | EC50 (Hepatitis C virus [7]): 0.43 nM | selectivity ratio [8]: > 11000 | Activity [9]: > 25 µM | EC50 (Hepatitis C virus [1]): 2.3 nM

CCN(CC)[C@@H](C(=O)N1CCC[C@H]1C(=O)Nc1ccc(-c2ccc(NC(=O)[C@@H]3CCCN3C(=O)[C@@H](c3ccccc3)N(CC)CC)cc2)cc1)c1ccccc1
selectivity ratio [6]: > 93000 | EC50 (Hepatitis C virus [7]): 0.27 nM | selectivity ratio [8]: > 11000 | Activity [9]: > 25 µM | EC50 (Hepatitis C virus [1]): 2.2 nM

COC(=O)N[C@@H](C)C(=O)N1CCC[C@H]1C(=O)Nc1ccc(-c2ccc(NC(=O)[C@@H]3CCCN3C(=O)[C@H](C)NC(=O)OC)cc2)cc1
EC50 (Hepatitis C virus [1]): > 1000 nM

COC(=O)N[C@H](C(=O)N1CCC[C@H]1C(=O)Nc1ccc(-c2ccc(NC(=O)[C@@H]3CCCN3C(=O)[C@@H](NC(=O)OC)C(C)(C)C)cc2)cc1)C(C)(C)C
EC50 (Hepatitis C virus [1]): 24 nM

O=C(Nc1ccc(-c2ccc(NC(=O)[C@@H]3CCCN3C(=O)[C@H]3CCCO3)cc2)cc1)[C@@H]1CCCN1C(=O)[C@H]1CCCO1
EC50 (Hepatitis C virus [1]): 400 nM

CC(=O)N1CCN(c2ccc(OCC3COC(Cn4ccnc4)(c4ccc(Cl)cc4Cl)O3)cc2)CC1 (racemic) [KETOCONAZOLE]
inhibition at 10 µM (CYP3A4): 95.3%

O=c1cc(-c2ccccc2)oc2c1ccc1ccccc12 [ALPHA-NAPHTHOFLAVONE]
inhibition at 10 µM (CYP1A2): 98.6%

C=C[C@H]1C[N@@]2CC[C@H]1C[C@@H]2[C@@H](O)c1ccnc2ccc(OC)cc12 [QUINIDINE]
inhibition at 10 µM (CYP2D6): 95.1%

Nc1ccc(S(=O)(=O)Nc2ccnn2-c2ccccc2)cc1 [SULFAPHENAZOLE]
inhibition at 10 µM (CYP2C9): 75.8%
